Measurements as given in the C3SDB collision cross section collection.

Experiments:
[1] = instrument: DT, single field, calibrated with Agilent tune mix (Agilent)
[2] = instrument: DT, stepped-field
[3] = instrument: DT, stepped-field; remark: listed apart in the source

C[C@H]1O[C@@H](n2cnc3c(N)ncnc32)[C@H](O)[C@@H]1O [5'-Deoxyadenosine]
collision cross section (N2) ([1]; [M+Na]+): 166.8 Å² | collision cross section (N2) ([1]; [M-H]-): 151.91 Å² | collision cross section (N2) ([2]; [M+H]+): 162.1 Å² | collision cross section (N2) ([2]; [M+Na]+): 171.99 Å²

Cn1c(=O)c2c(ncn2C)n(C)c1=O [Caffeine]
collision cross section (N2) ([1]; [M+H]+): 140.9 Å² | collision cross section (N2) ([2]; [M+H]+): 145.4 Å² | collision cross section (N2) ([2]; [M+Na]+): 142.93 Å²

OC[C@H]1O[C@@H](O[C@H]2[C@H](O)[C@@H](O)[C@H](O)O[C@@H]2CO)[C@H](O)[C@@H](O)[C@@H]1O [Cellobiose]
collision cross section (N2) ([1]; [M+Na]+): 178.1 Å² | collision cross section (N2) ([2]; [M+Na]+): 178.66 Å²

CCCCCCCCCCCCCCCCCC(=O)N[C@@H](CO)[C@H](O)CCCCCCCCCCCCCCC [Cer(36:00)]
collision cross section (N2) ([3]; [M+H]+): 261.92 Å²

CCCCCCCCCCCCCCCCCCCC(=O)N[C@@H](CO)[C@H](O)CCCCCCCCCCCCCCC [Cer(38:00)]
collision cross section (N2) ([3]; [M+H]+): 267.37 Å²

CCCCCCCCCCCCC=CC[C@@H](O)[C@H](CO)NC(=O)CC=CCCCCCCCCCCCCCCCCCC [Cer(40:02)]
collision cross section (N2) ([3]; [M+H-H2O]+): 267.47 Å² | collision cross section (N2) ([3]; [M+H]+): 272.27 Å²

CCCCCCCCCCCCC=CC[C@@H](O)[C@H](CO)NC(=O)CC=CCCCCCCCCCCCCCCCCCCCCCC [Cer(44:02)]
collision cross section (N2) ([3]; [M+H-H2O]+): 279.7 Å²

OCC1(O)OC[C@@H](O)[C@@H](O)[C@@H]1O (stereo partly drawn) [D-Fructose]
collision cross section (N2) ([1]; [M+Na]+): 141.4 Å² | collision cross section (N2) ([2]; [M+Na]+): 141.93 Å²

Nc1ccn([C@H]2C[C@H](O)[C@@H](CO)O2)c(=O)n1 [Deoxycytidine]
collision cross section (N2) ([1]; [M+Na]+): 154.5 Å² | collision cross section (N2) ([1]; [M-H]-): 146.84 Å² | collision cross section (N2) ([2]; [M+Na]+): 158.41 Å²

O=C(COP(=O)(O)O)[C@@H](O)[C@H](O)[C@H](O)CO [Fructose-1-phosphate]
collision cross section (N2) ([1]; [M+Na]+): 155.4 Å² | collision cross section (N2) ([1]; [M-H]-): 141.86 Å² | collision cross section (N2) ([2]; [M+Na]+): 159.68 Å²

CCCCCCCCCCCCCCCCCC(=O)N[C@@H](CO[C@@H]1O[C@H](CO)[C@@H](O)C(O)C1O)[C@H](O)CCCCCCCCCCCCCCC (stereo partly specified) [GlcCer(36:00)]
collision cross section (N2) ([3]; [M+H]+): 284.59 Å²

CCCCCCCCCCCCC=CC[C@@H](O)[C@H](CO[C@@H]1O[C@H](CO)[C@@H](O)C(O)C1O)NC(=O)CC=CCCCCCCCCCCCCCC (stereo partly specified) [GlcCer(36:02)]
collision cross section (N2) ([3]; [M+H]+): 281.37 Å² | collision cross section (N2) ([3]; [M+Na]+): 281.52 Å²

CCCCCCCCCCCCC=CC[C@@H](O)[C@H](CO[C@@H]1O[C@H](CO)[C@@H](O)C(O)C1O)NC(=O)CCCCCCCCCCCCCCCCCCCC (stereo partly specified) [GlcCer(39:01)]
collision cross section (N2) ([3]; [M+Na]+): 291.95 Å²

CCCCCCCCCCCCC=CC[C@@H](O)[C@H](CO[C@@H]1O[C@H](CO)[C@@H](O)C(O)C1O)NC(=O)CC=CCC=CCCCCCCCCCCCCCCC (stereo partly specified) [GlcCer(40:03)]
collision cross section (N2) ([3]; [M+Na]+): 290.28 Å²

CCCCCCCCCCCCCCCCCCCCCCCC(=O)N[C@@H](CO[C@@H]1O[C@H](CO)[C@@H](O)C(O)C1O)[C@H](O)CCCCCCCCCCCCCCC (stereo partly specified) [GlcCer(42:00)]
collision cross section (N2) ([3]; [M+H]+): 302.3 Å² | collision cross section (N2) ([3]; [M+Na]+): 303.14 Å²

CCCCCCCCCCCCC=CC[C@@H](O)[C@H](CO[C@@H]1O[C@H](CO)[C@@H](O)C(O)C1O)NC(=O)CC=CCCCCCCCCCCCCCCCCCCCC (stereo partly specified) [GlcCer(42:02)]
collision cross section (N2) ([3]; [M+Cl]-): 298.77 Å² | collision cross section (N2) ([3]; [M+H-H2O]+): 296.4 Å² | collision cross section (N2) ([3]; [M+HCOO]-): 301.95 Å² | collision cross section (N2) ([3]; [M+H]+): 299.26 Å² | collision cross section (N2) ([3]; [M+Na]+): 299.53 Å²

CCCCCCCCCCCCCCCCCCCCCCCCCCCCC(=O)N[C@@H](CO[C@@H]1O[C@H](CO)[C@@H](O)C(O)C1O)[C@H](O)CCCCCCCCCCCCCCC (stereo partly specified) [GlcCer(47:00)]
collision cross section (N2) ([3]; [M+Na-2H2O]+): 313.61 Å²

Cn1cncc1C[C@H](NC(=O)CCN)C(=O)O [L-Anserine]
collision cross section (N2) ([1]; [M+H]+): 154.1 Å² | collision cross section (N2) ([1]; [M-H]-): 152.32 Å² | collision cross section (N2) ([2]; [M+H]+): 155.97 Å² | collision cross section (N2) ([2]; [M+Na]+): 159.77 Å²

CC(=O)NCCCCN [N-Acetylputrescine]
collision cross section (N2) ([1]; [M+H]+): 128.3 Å² | collision cross section (N2) ([1]; [M-H]-): 127.22 Å² | collision cross section (N2) ([2]; [M+H]+): 131.7 Å² | collision cross section (N2) ([2]; [M+Na]+): 137.57 Å²

C[C@@H]1O[C@@H](O[C@H]2[C@H](Oc3cc(O)c4c(c3)O[C@H](c3ccc(O)cc3)CC4=O)O[C@H](CO)[C@@H](O)[C@@H]2O)[C@H](O)[C@H](O)[C@H]1O [Naringin]
collision cross section (N2) ([1]; [M+H]+): 237.5 Å² | collision cross section (N2) ([2]; [M+H]+): 240.62 Å² | collision cross section (N2) ([2]; [M+Na]+): 234.02 Å²

CCCCC/C=C\C/C=C\CCCCCCCCCC(=O)O[C@H](COC(=O)CCCCCCC/C=C\CCCCCC)COP(=O)(O)O [PA(36:03)]
collision cross section (N2) ([3]; [M+2Na-H]+): 271.74 Å² | collision cross section (N2) ([3]; [M+Na]+): 270.97 Å²

CCCCC/C=C\C/C=C\CCCCCCCCCCCC(=O)O[C@H](COC(=O)CCCCCCCCCCCCCCC)COP(=O)(O)O [PA(38:02)]
collision cross section (N2) ([3]; [M+Na]+): 279.74 Å²

CCCCC/C=C\C/C=C\CCCCCCCCCC(=O)O[C@H](COC(=O)CCCCCCC/C=C\CCCCCCCC)COP(=O)(O)O [PA(38:03)]
collision cross section (N2) ([3]; [M+2Na-H]+): 279.8 Å² | collision cross section (N2) ([3]; [M+Na]+): 277.43 Å²

CCCCC/C=C\C/C=C\C/C=C\C/C=C\CCCCCC(=O)O[C@H](COC(=O)CCCCCCC/C=C\CCCCCCCC)COP(=O)(O)O [PA(40:05)]
collision cross section (N2) ([3]; [M+2Na-H]+): 283.07 Å² | collision cross section (N2) ([3]; [M+Na]+): 281.79 Å²

CCCCCCCC/C=C\CCCCCCCCCC(=O)O[C@H](COC(=O)CCCCCCCCCCC)COP(=O)([O-])OCC[N+](C)(C)C [PC(32:01)]
collision cross section (N2) ([3]; [M+HCOO]-): 284.71 Å² | collision cross section (N2) ([3]; [M+H]+): 276.5 Å² | collision cross section (N2) ([3]; [M+Na]+): 279.16 Å²

CCCCC[C@H](O)/C=C/[C@@H]1[C@@H](C/C=C\CCCC(=O)O)[C@@H](O)C[C@H]1O [Prostaglandin F2a]
collision cross section (N2) ([2]; [M+Na]+): 205.7 Å²

CCCCC[C@H](O)/C=C/[C@@H]1[C@@H](C/C=C\CCCC(=O)O)[C@@H]2C[C@H]1OO2 [Prostaglandin H2]
collision cross section (N2) ([2]; [M+Na]+): 202.63 Å²

CO[C@H]1/C=C/O[C@@]2(C)Oc3c(C)c(O)c4c(c3C2=O)C(=O)/C(=C/NN2CCN(C)CC2)C(=C4O)NC(=O)/C(C)=C\C=C\[C@H](C)[C@H](O)[C@@H](C)[C@@H](O)[C@@H](C)[C@H](OC(C)=O)[C@@H]1C [Rifampicin]
collision cross section (N2) ([2]; [M+H]+): 287.13 Å² | collision cross section (N2) ([2]; [M+Na]+): 285.07 Å²

C[C@@H]1O[C@@H](OC[C@H]2O[C@@H](Oc3c(-c4ccc(O)c(O)c4)oc4cc(O)cc(O)c4c3=O)[C@H](O)[C@@H](O)[C@@H]2O)[C@H](O)[C@H](O)[C@H]1O [Rutin]
collision cross section (N2) ([1]; [M+H]+): 232.6 Å² | collision cross section (N2) ([1]; [M-H]-): 231.04 Å² | collision cross section (N2) ([2]; [M+H]+): 236.2 Å² | collision cross section (N2) ([2]; [M+Na]+): 251.61 Å²

C[S+](CC[C@H](N)C(=O)[O-])C[C@H]1O[C@@H](n2cnc3c(N)ncnc32)[C@H](O)[C@@H]1O (stereo partly drawn) [S-Adenosyl-L-methionine]
collision cross section (N2) ([2]; [M+H]+): 186.46 Å²

CCCCCCSC[C@H](NC(=O)CC[C@H](N)C(=O)O)C(=O)NCC(=O)O [S-Hexyl-glutathione]
collision cross section (N2) ([2]; [M+H]+): 203.2 Å²

C=C[C@H]1[C@H](O[C@@H]2O[C@H](CO)[C@@H](O)[C@H](O)[C@H]2O)OC=C(C(=O)OC)[C@H]1CC=O [Secologanin]
collision cross section (N2) ([2]; [M+Na]+): 191.96 Å²

NCCc1c[nH]c2ccc(O)cc12 [Serotonin]
collision cross section (N2) ([1]; [M-H]-): 135.85 Å² | collision cross section (N2) ([2]; [M+H]+): 151.9 Å² | collision cross section (N2) ([2]; [M+Na]+): 150.8 Å²

O=C(O)C1=C[C@@H](O)[C@@H](O)[C@H](O)C1 [Shikimic Acid]
collision cross section (N2) ([2]; [M+H]+): 149.5 Å²

CCCCCCCCCCCCCCCCCC(=O)O [Stearic Acid]
collision cross section (N2) ([2]; [M+Na]+): 191.83 Å²

O=C(O)CCC(=O)O [Succinic Acid]
collision cross section (N2) ([2]; [M+H]+): 122.66 Å²

Nc1ccc(S(N)(=O)=O)cc1 [Sulfanilamide]
collision cross section (N2) ([2]; [M+H]+): 156.07 Å² | collision cross section (N2) ([2]; [M+Na]+): 152.77 Å²

Cc1ncc(C[n+]2csc(CCOP(=O)(O)O)c2C)c(N)n1 [Thiamine Monophosphate]
collision cross section (N2) ([2]; [M+H]+): 172.53 Å²

Cc1cn([C@H]2C[C@H](O)[C@@H](COP(=O)(O)O)O2)c(=O)[nH]c1=O [Thymidine 5'-Monophosphate]
collision cross section (N2) ([2]; [M+H]+): 163.84 Å² | collision cross section (N2) ([2]; [M+Na]+): 169.74 Å²

O=P(O)(O)OC[C@H]1O[C@H](O[C@H]2O[C@H](CO)[C@@H](O)[C@H](O)[C@H]2O)[C@H](O)[C@@H](O)[C@@H]1O [Trehalose 6-Phosphate]
collision cross section (N2) ([2]; [M+Na]+): 192.43 Å²

C[n+]1cccc(C(=O)[O-])c1 [Trigonelline]
collision cross section (N2) ([2]; [M+H]+): 126.37 Å² | collision cross section (N2) ([2]; [M+Na]+): 139.87 Å²
